Values quoted from earlier work in patent publication US20050043536A1, “Sulfonamides” (priority 2001, published 2005).

Test system: rat-isolated aorta

## CC(C)[C@H](NC(=O)[C@@H]1CSSC[C@H](NC(=O)[C@H](CC(=O)O)NC(=O)[C@@H]2CCCN2C(=O)[C@@H](NC(=O)[C@@H](N)CCC(=O)O)[C@@H](C)O)C(=O)N[C@@H](Cc2ccccc2)C(=O)N[C@@H](Cc2c[nH]c3ccccc23)C(=O)N[C@@H](CCCCN)C(=O)N[C@@H](Cc2ccc(O)cc2)C(=O)N1)C(=O)O [Human Urotensin-II]
  contractile activity: the most potent contractile agonist identified to date
